Test results as given in ChEMBL document CHEMBL4610010, “Metachromins X and Y from a marine sponge Spongia sp. and their effects on cell cycle progression” (Bioorg Med Chem, 2020).
Structures can show the parent of a compound that is named as a salt. Calls of active or inactive are those of the source. The calls are words filed in the database; no cut-off is given here.

Experiments:
[1] = tested on: HeLa/Fucci2; test: Antiproliferative activity against human HeLa/Fucci2 cells assessed as inhibition of cell viability incubated for 3 days by MTT assay; type: functional, cell-based; conditions: HeLa/Fucci2, 72 h
[2] = tested on: HeLa/Fucci2; test: Induction of cell cycle arrest in human HeLa/Fucci2 cells assessed as accumulation at S/G2/M phase at 56 uM measured after 68 hrs by Time-lapse imaging analysis based fluorescent microscopic method; type: functional
[3] = tested on: HeLa/Fucci2; test: Induction of cell cycle arrest in human HeLa/Fucci2 cells assessed as accumulation at G1 phase at 56 uM incubated for 3 days by flow cytometric analysis (reference value: 39.4%); type: functional
[4] = tested on: HeLa/Fucci2; test: Induction of cell cycle arrest in human HeLa/Fucci2 cells assessed as accumulation at G1/S phase at 56 uM incubated for 3 days by flow cytometric analysis (reference value: 40.2%); type: functional
[5] = tested on: HeLa/Fucci2; test: Induction of cell cycle arrest in human HeLa/Fucci2 cells assessed as accumulation at S/G2/M phase at 56 uM incubated for 3 days by flow cytometric analysis (reference value: 20.4%); type: functional

With `COC1=CC(=O)C(O)=C(C/C=C(\C)CCC2=C(C)CCCC2(C)C)C1=O` the IC50 [1] was 64 µM, the Activity [2] was “Active” and the Activity [3] was 7.6%. It also gave an Activity [4] of 4.3% and an Activity [5] of 88%.

`COc1cccc2c1C(=O)c1c(O)c3c(c(O)c1C2=O)C[C@@](O)(C(=O)CO)C[C@@H]3O[C@H]1C[C@H](N)[C@H](O)[C@H](C)O1` [DOXORUBICIN HYDROCHLORIDE] showed an IC50 [1] of 2 µM.

`COc1cc(OC)c2c(c1O)C=C[C@](C)(CC[C@@]1(C)CCC=C(C)[C@H]1C)O2` was tested, and the IC50 [1] was 89 µM and the Activity [2] was “inactive”.

In the case of `COC1=CC(=O)C(O)=C(C/C=C(\C)CC[C@@]2(C)CCC=C(C)[C@H]2C)C1=O` [METACHROMIN C], the IC50 [1] is reported as 53 µM and the Activity [2] is reported as “Active”.

With `COC1=CC(=O)C2=C(C=CC(C)(CC[C@@]3(C)CCC=C(C)[C@H]3C)O2)C1=O` (some centres not stated) the IC50 [1] was 73 µM and the Activity [2] was “inactive”.

For `COC1=CC(=O)C2=C(C=CC(C)(CCC3=C(C)CCCC3(C)C)O2)C1=O` (racemic), the IC50 [1] was 76 µM, the Activity [2] was “inactive” and the Activity [3] was 21.5%. The Activity [4] was 23.4% and the Activity [5] was 55%.
